Measurements from US20230241071A1, “COMBINATION TREATMENT OF LIVER DISORDERS” (Terns Pharmaceuticals, Inc., priority 2021, published 2023).
Entries after “also recorded” stand apart in the source; their conditions may differ. Like-named read-outs stand apart in the source and are kept apart here.

Experiments:
[1] = Multiple-ascending dose trial of Compound 1 in healthy participants: safety and PK; type: in vivo, human; details: for Cmax / Tmax / AUC(0-t) / half-life: human, plasma; for Cmax / AUC(0-t): mean (CV %); for Tmax / half-life: median (min, max)
Protocol: A multiple-ascending dose clinical trial of Compound 1 was performed.

Approximate pKa = type: physicochemical
[2] = Multiple-ascending dose trial of Compound 2 in healthy participants; type: in vivo, human; details: for Cmax / AUC / half-life: human, plasma, oral; for AUC: read-out: AUCtau (mean); for half-life: read-out: t1/2 (median) (converted)
Protocol: A multiple-ascending dose clinical trial of Compound 2 was performed.
Compound 2 plasma and urine concentrations were determined using validated liquid chromatography-tandem mass spectrometry assay.
Plasma samples for Compound 2 concentration and PK sampling were collected pre-dose and at 0.5, 1, 2, 3, 4, 6, 8, 12, and 24 hours after the first dose, at pre-dose on Days 3, 4, 5, 8, 11, and 13 of dosing, and at pre-dose and at 0.5, 1, 2, 3, 4, 6, 8, 12, 24, 48, and 72 hours after 14 days of administration of study medication (placebo or compound). (See Table 16, FIG. 17) PK parameters were estimated via noncompartmental methods using Phoenix® WinNonlin® (Certara, LP, Princeton, N.J.). Concentrations of serum pharmacodynamic (PD) biomarkers apolipoprotein B (Apo B) and sex hormone binding globulin (SHBG) were measured using an immunoassay and serum lipids were determined using spectrophotometry.
PD sampling was also performed. Percent change from baseline for PD markers were calculated using an ANCOVA model with percent change from baseline as dependent variable, treatment group as fixed effect, and baseline as covariate. Analyses used observed data only without imputation for missing data.

[3] = 10 mg, 10 mg QD, Last day (of 14)

COC1CCN(c2ncc(OC/C(=C/F)CN)cn2)CC1 [Compound 1, (E)-3-fluoro-2-(((2-(4-methoxypiperidin-1-yl)pyrimidin-5-yl)oxy)methyl)prop-2-en-1-amine]
Subject incidence of TEAEs considered possibly treatment-related ([1]; 1 mg QD 7 days (n = 6)): 1 (16.7) n (%)
Subject incidence of any TEAE ([1]; 1 mg QD 7 days (n = 6)): 2 (33.3) n (%)
TEAE frequency: Back pain ([1]; 1 mg QD 7 days (n = 6)): 0
TEAE frequency: Catheter site inflammation ([1]; 1 mg QD 7 days (n = 6)): 0
TEAE frequency: Contusion ([1]; 1 mg QD 7 days (n = 6)): 0
TEAE frequency: Dermatitis contact ([1]; 1 mg QD 7 days (n = 6)): 1 (16.7)
TEAE frequency: Diarrhea ([1]; 1 mg QD 7 days (n = 6)): 0
TEAE frequency: Dizziness ([1]; 1 mg QD 7 days (n = 6)): 1 (16.7)
TEAE frequency: Medical device site reaction ([1]; 1 mg QD 7 days (n = 6)): 0
TEAE frequency: Rhinitis ([1]; 1 mg QD 7 days (n = 6)): 0
TEAE frequency: headache ([1]; 1 mg QD 7 days (n = 6)): 1 (12.5)
Subject incidence of TEAEs considered possibly treatment-related ([1]; 4 mg QD 7 days (n = 6)): 0 n (%)
Subject incidence of any TEAE ([1]; 4 mg QD 7 days (n = 6)): 2 (33.3) n (%)
TEAE frequency: Back pain ([1]; 4 mg QD 7 days (n = 6)): 0
TEAE frequency: Catheter site inflammation ([1]; 4 mg QD 7 days (n = 6)): 0
TEAE frequency: Contusion ([1]; 4 mg QD 7 days (n = 6)): 0
TEAE frequency: Dermatitis contact ([1]; 4 mg QD 7 days (n = 6)): 2 (33.3)
TEAE frequency: Diarrhea ([1]; 4 mg QD 7 days (n = 6)): 0
TEAE frequency: Dizziness ([1]; 4 mg QD 7 days (n = 6)): 0
TEAE frequency: Medical device site reaction ([1]; 4 mg QD 7 days (n = 6)): 0
TEAE frequency: Rhinitis ([1]; 4 mg QD 7 days (n = 6)): 0
TEAE frequency: headache ([1]; 4 mg QD 7 days (n = 6)): 0
time to steady state ([1]; 10 mg QD): 7 days
Subject incidence of TEAEs considered possibly treatment-related ([1]; 10 mg QD 14 days (n = 6)): 0 n (%)
Subject incidence of any TEAE ([1]; 10 mg QD 14 days (n = 6)): 6 (100) n (%)
TEAE frequency: Back pain ([1]; 10 mg QD 14 days (n = 6)): 0
TEAE frequency: Catheter site inflammation ([1]; 10 mg QD 14 days (n = 6)): 0
TEAE frequency: Contusion ([1]; 10 mg QD 14 days (n = 6)): 0
TEAE frequency: Dermatitis contact ([1]; 10 mg QD 14 days (n = 6)): 0
TEAE frequency: Diarrhea ([1]; 10 mg QD 14 days (n = 6)): 0
TEAE frequency: Dizziness ([1]; 10 mg QD 14 days (n = 6)): 0
TEAE frequency: Medical device site reaction ([1]; 10 mg QD 14 days (n = 6)): 6 (100)
TEAE frequency: Rhinitis ([1]; 10 mg QD 14 days (n = 6)): 1 (16.7)
TEAE frequency: headache ([1]; 10 mg QD 14 days (n = 6)): 0
half-life versus dose ([1]; 1, 4, 10 mg QD): increased with dose
plasma PK exposure, dose proportionality ([1]; between dose groups on Day 1): greater than dose proportional
Cmax ([1]; 1 mg, 1 mg QD, Day 1): 0.568 ng/mL
Tmax ([1]; 1 mg, 1 mg QD, Day 1): 1.53 h
AUC(0-t) ([1]; 1 mg, 1 mg QD, Last day (of 7)): 13.3 ng·h/mL
Cmax ([1]; 1 mg, 1 mg QD, Last day (of 7)): 2.75 ng/mL
Tmax ([1]; 1 mg, 1 mg QD, Last day (of 7)): 2.51 h
AUC(0-t) ([1]; 4 mg, 4 mg QD, Day 1): 17.1 ng·h/mL
Cmax ([1]; 4 mg, 4 mg QD, Day 1): 5.11 ng/mL
Tmax ([1]; 4 mg, 4 mg QD, Day 1): 2.02 h
AUC(0-t) ([1]; 4 mg, 4 mg QD, Last day (of 7)): 198 ng·h/mL
Cmax ([1]; 4 mg, 4 mg QD, Last day (of 7)): 18.6 ng/mL
Tmax ([1]; 4 mg, 4 mg QD, Last day (of 7)): 3.03 h
AUC(0-t) ([1]; 10 mg, 10 mg QD, Day 1): 102 ng·h/mL
Cmax ([1]; 10 mg, 10 mg QD, Day 1): 17.7 ng/mL
Tmax ([1]; 10 mg, 10 mg QD, Day 1): 1.9 h
AUC(0-t) [1, 3]: 656 ng·h/mL
Cmax [1, 3]: 47.5 ng/mL
Tmax [1, 3]: 3.98 h
half-life ([1]; 1 mg QD, Last day (of 7)): 2.27 h
half-life ([1]; 4 mg QD, Last day (of 7)): 6.71 h
half-life ([1]; 10 mg QD, Last day (of 14)): 13.3 h
Subject incidence of TEAEs considered possibly treatment-related ([1]; overall Compound 1 (n = 18)): 1 (5.6) n (%)
Subject incidence of any TEAE ([1]; overall Compound 1 (n = 18)): 10 (55.6) n (%)
TEAE frequency: Back pain ([1]; overall Compound 1 (n = 18)): 0
TEAE frequency: Catheter site inflammation ([1]; overall Compound 1 (n = 18)): 0
TEAE frequency: Contusion ([1]; overall Compound 1 (n = 18)): 0
TEAE frequency: Dermatitis contact ([1]; overall Compound 1 (n = 18)): 3 (16.7)
TEAE frequency: Diarrhea ([1]; overall Compound 1 (n = 18)): 0
TEAE frequency: Dizziness ([1]; overall Compound 1 (n = 18)): 1 (5.6)
TEAE frequency: Medical device site reaction ([1]; overall Compound 1 (n = 18)): 6 (33.3)
TEAE frequency: Rhinitis ([1]; overall Compound 1 (n = 18)): 1 (5.6)
TEAE frequency: headache ([1]; overall Compound 1 (n = 18)): 1 (5.6)
safety and tolerability ([1]; up to 10 mg QD for 14 days): mild (grade 1); also recorded: safe and well tolerated

N#Cc1nn(-c2cc(Cl)c(Oc3n[nH]c(=O)c4ccccc34)c(Cl)c2)c(=O)[nH]c1=O [Compound 2, 2-(3,5-dichloro-4-((4-oxo-3,4-dihydrophthalazin-1-yl)oxy)phenyl)-3,5-dioxo-2,3,4,5-tetrahydro-1,2,4-triazine-6-carbonitrile]
pKa (Approximate pKa): ~4.12
AEs by relationship to drug: Not related ([2]; 3 mg QD 14 days (N = 6)): 1 (16.7%) n (%)
AEs by relationship to drug: Possibly related ([2]; 3 mg QD 14 days (N = 6)): 0 n (%)
AEs by relationship to drug: Related ([2]; 3 mg QD 14 days (N = 6)): 0 n (%)
AEs by relationship to drug: Unlikely related ([2]; 3 mg QD 14 days (N = 6)): 0 n (%)
Subject incidence: Any AE, all CTCAE grades ([2]; 3 mg QD 14 days (N = 6)): 1 (16.7%) n (%)
Subject incidence: Grade 1 AEs ([2]; 3 mg QD 14 days (N = 6)): 1 (16.7%) n (%)
Subject incidence: Grade 2 or higher AEs ([2]; 3 mg QD 14 days (N = 6)): 0 n (%)
Subject incidence: Serious AEs ([2]; 3 mg QD 14 days (N = 6)): 0 n (%)
AEs by relationship to drug: Not related ([2]; 6 mg QD 14 days (N = 6)): 0 n (%)
AEs by relationship to drug: Possibly related ([2]; 6 mg QD 14 days (N = 6)): 1 (16.7%) n (%)
AEs by relationship to drug: Related ([2]; 6 mg QD 14 days (N = 6)): 0 n (%)
AEs by relationship to drug: Unlikely related ([2]; 6 mg QD 14 days (N = 6)): 0 n (%)
Subject incidence: Any AE, all CTCAE grades ([2]; 6 mg QD 14 days (N = 6)): 1 (16.7%) n (%)
Subject incidence: Grade 1 AEs ([2]; 6 mg QD 14 days (N = 6)): 1 (16.7%) n (%)
Subject incidence: Grade 2 or higher AEs ([2]; 6 mg QD 14 days (N = 6)): 0 n (%)
Subject incidence: Serious AEs ([2]; 6 mg QD 14 days (N = 6)): 0 n (%)
AEs by relationship to drug: Not related ([2]; 10 mg QD 14 days (N = 6)): 2 (33.3%) n (%)
AEs by relationship to drug: Possibly related ([2]; 10 mg QD 14 days (N = 6)): 0 n (%)
AEs by relationship to drug: Related ([2]; 10 mg QD 14 days (N = 6)): 0 n (%)
AEs by relationship to drug: Unlikely related ([2]; 10 mg QD 14 days (N = 6)): 0 n (%)
Subject incidence: Any AE, all CTCAE grades ([2]; 10 mg QD 14 days (N = 6)): 2 (33.3%) n (%)
Subject incidence: Grade 1 AEs ([2]; 10 mg QD 14 days (N = 6)): 2 (33.3%) n (%)
Subject incidence: Grade 2 or higher AEs ([2]; 10 mg QD 14 days (N = 6)): 0 n (%)
Subject incidence: Serious AEs ([2]; 10 mg QD 14 days (N = 6)): 0 n (%)
Ctau (mean) ([2]; Day 14, 1 mg QD): 25.7 ng/mL
Ctau (mean) ([2]; Day 14, 3 mg QD): 77.9 ng/mL
Ctau (mean) ([2]; Day 14, 6 mg QD): 175 ng/mL
Ctau (mean) ([2]; Day 14, 10 mg QD): 196 ng/mL
GGT ([2]; QD 14 days): Dose-dependent GGT increases
TSH or free T3 ([2]; QD 14 days): without clear change
free T4 ([2]; QD 14 days): declined in dose-dependent fashion
free testosterone levels ([2]; QD 14 days): no significant change
heart rate and blood pressure ([2]; QD 14 days): remained stable
mean ALT values ([2]; QD 14 days): not significantly different from placebo
oral bioavailability and PK variability ([2]; QD 14 days): good oral bioavailability with low PK variability
total testosterone ([2]; QD 14 days): Dose-dependent total testosterone increases
safety and tolerability ([2]; QD 14 days, up to 10 mg): well-tolerated
HDL-c ([2]; day 15): did not significantly change
total cholesterol, LDL-c, Apo B, and triglycerides ([2]; day 15, 10 mg dose cohort): significant reductions
Cmax ([2]; Day 14, 1 mg QD): 80.3 ng/mL
AUC ([2]; Day 14, 1 mg QD): 1090 ng·h/mL
half-life ([2]; Day 14, 1 mg QD): 19.5 h
Cmax ([2]; Day 14, 3 mg QD): 291 ng/mL
AUC ([2]; Day 14, 3 mg QD): 3600 ng·h/mL
half-life ([2]; Day 14, 3 mg QD): 16 h
Cmax ([2]; Day 14, 6 mg QD): 699 ng/mL
AUC ([2]; Day 14, 6 mg QD): 8310 ng·h/mL
half-life ([2]; Day 14, 6 mg QD): 15.8 h
Cmax ([2]; Day 14, 10 mg QD): 996 ng/mL
AUC ([2]; Day 14, 10 mg QD): 10600 ng·h/mL
half-life ([2]; Day 14, 10 mg QD): 15.4 h
SHBG ([2]; multiple doses, even at 3 mg QD): significant and dose-dependent increases
